Results on 48 compounds are retold here after patent US20120207763A1, “PYRROLOPYRIMIDINE COMPOUNDS AND THEIR USES” (ASTEX THERAPEUTICS LIMITED, priority 2006, published 2012).

Common to all, as to type: biochemical
The target in experiment [1] is CDK2/Cyclin-A kinase complex (Homo sapiens, UniProt P24941). Briefly: CDK2 IMAP fluorescence polarization assay. Conditions: Table E; read-out: CDK2cyA IMAP/IC50 [umol l − 1]. The source says:
In order to test the CDK2 activity of the compounds of the invention, the CDK2 assay is a flourescence polarization assay, where the enzyme is a purified active CDK2/Cyclin-A kinase complex and the substrate is a synthesized peptide derived from Histone H1. This assay utilizes the IMAP technology from Molecular Devices. The active CDK2/Cyclin-A complex phosphorylates the peptide substrate, which is conjugated with the TAMRA tag. The phosphorylated site is then recognized by a metal containing molecule that interacts with the TAMRA tag to induce a high flourescence polarization. The compounds that inhibit the CDK2 kinase activity would inhibit the flourescence output of the assay.
On the technique in general: Fluorescence polarisation rises when a labelled molecule tumbles more slowly, as on binding a larger partner.

In a further experiment the target is hCDK1/B (Homo sapiens, UniProt P06493). Briefly: hCDK1/B assay. The following applies: Table E; read-out: hCDK1/B/IC50 [umol l − 1].
Chain of hCDK1/B (P06493 whole entry): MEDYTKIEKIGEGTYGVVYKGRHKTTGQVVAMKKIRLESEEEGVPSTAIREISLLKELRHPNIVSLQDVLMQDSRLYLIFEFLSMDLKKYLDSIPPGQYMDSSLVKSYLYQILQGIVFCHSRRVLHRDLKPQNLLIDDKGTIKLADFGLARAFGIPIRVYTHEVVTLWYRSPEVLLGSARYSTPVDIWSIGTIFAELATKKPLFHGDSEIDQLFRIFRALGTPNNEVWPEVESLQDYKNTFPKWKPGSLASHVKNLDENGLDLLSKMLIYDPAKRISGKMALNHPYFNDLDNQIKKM
Chain of hCDK1/B (P14635 whole entry partner): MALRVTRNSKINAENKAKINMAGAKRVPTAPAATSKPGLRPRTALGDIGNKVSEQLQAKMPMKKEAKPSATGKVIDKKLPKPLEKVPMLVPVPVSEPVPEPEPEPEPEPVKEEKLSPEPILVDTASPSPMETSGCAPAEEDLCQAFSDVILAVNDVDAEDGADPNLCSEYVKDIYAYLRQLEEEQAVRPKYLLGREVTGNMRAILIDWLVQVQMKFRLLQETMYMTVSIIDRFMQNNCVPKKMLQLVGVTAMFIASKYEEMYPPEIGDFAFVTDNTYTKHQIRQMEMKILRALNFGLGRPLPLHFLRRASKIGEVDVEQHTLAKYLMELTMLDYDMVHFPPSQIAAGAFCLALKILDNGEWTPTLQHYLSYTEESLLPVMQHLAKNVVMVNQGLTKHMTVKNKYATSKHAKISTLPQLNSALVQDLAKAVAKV
The target in another experiment is CDK4 (Homo sapiens, UniProt P11802). Put plainly: CDK4 HTRF assay. The following applies: Table E; read-out: CDK4 HTRF/IC50 [umol l − 1].
Chain of CDK4 (P11802 whole entry): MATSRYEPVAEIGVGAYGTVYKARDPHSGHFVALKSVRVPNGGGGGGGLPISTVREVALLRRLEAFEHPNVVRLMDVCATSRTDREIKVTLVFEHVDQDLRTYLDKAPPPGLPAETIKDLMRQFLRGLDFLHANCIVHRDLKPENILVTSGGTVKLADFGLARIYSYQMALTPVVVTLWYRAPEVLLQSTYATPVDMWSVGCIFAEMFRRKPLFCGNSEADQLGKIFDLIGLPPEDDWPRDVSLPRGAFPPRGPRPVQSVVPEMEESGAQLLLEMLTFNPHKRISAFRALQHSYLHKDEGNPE
Chain of CDK4 (P24385 whole entry partner): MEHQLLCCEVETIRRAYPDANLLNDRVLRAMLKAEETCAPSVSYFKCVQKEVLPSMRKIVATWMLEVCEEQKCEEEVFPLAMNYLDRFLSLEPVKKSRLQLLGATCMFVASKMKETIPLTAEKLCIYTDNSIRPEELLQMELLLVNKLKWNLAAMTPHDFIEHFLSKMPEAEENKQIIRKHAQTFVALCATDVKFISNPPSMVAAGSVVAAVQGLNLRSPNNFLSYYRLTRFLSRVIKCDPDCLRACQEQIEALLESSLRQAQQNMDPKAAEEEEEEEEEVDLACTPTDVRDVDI

Values joined by “and” are separate entries in the source; they are usually repeats but may differ in a detail not shown here. Identical values can stand only once.

With `CCC(CC)n1c(CNCc2ccco2)cc2cnc(Nc3ccc(N4CCN(C(C)=O)CC4)cc3)nc21` [Example 449], the IC50 (in experiment [1]; on hCDK1/B) was below 10 µM in each case.
Consider `CCC(CC)n1c(C(=O)NC)cc2cnc(Nc3ccc(N4CCNCC4)cc3)nc21` [Example 346], for which the IC50 is below 10 µM in experiment [1], below 1 µM on CDK4 and below 10 µM at hCDK1/B.
In the case of `Cc1c(-c2cnco2)n(C2CCCC2)c2nc(Nc3ccc(CN4CCNCC4)cc3)ncc12` [Example 402], the IC50 (in experiment [1]; on CDK4; at hCDK1/B) was below 1 µM in each case.
Turning to `CN(C)C(=O)c1cc2cnc(Nc3ccc(CN4CCOCC4)cc3)nc2n1C1CCCC1` [Example 340], the IC50 in experiment [1] is below 10 µM; on CDK4, below 1 µM; at hCDK1/B, below 10 µM.
As for `Cc1cn(C2CCC(O)C2)c2nc(Nc3ccc(CN4CCNCC4)cc3)ncc12` (stereo not drawn) [Example 316], the IC50 was below 1 µM in experiment [1], below 1 µM on CDK4 and below 10 µM at hCDK1/B.
As to `c1cc(N2CCNCC2)ccc1Nc1ncc2ccn(C3CCCCCC3)c2n1` [Example 232], the IC50 was > 10 µM and < 1 µM on CDK4; above 10 µM at hCDK1/B.
As to `Cc1cn(C2CCCC2)c2nc(Nc3ccc(N4CCCCC4)nc3)ncc12` [Example 284], the IC50 in experiment [1] was above 15 µM; on CDK4, above 10 µM; at hCDK1/B, above 15 µM.
`CCC(CC)n1c(C(=O)Nc2cccc(F)c2)cc2cnc(Nc3ccc(N4CCNCC4)cc3)nc21` [Example 357]: the IC50 was below 10 µM in experiment [1], below 1 µM at CDK4 and below 10 µM on hCDK1/B.
For the compound `Cc1c(C(N)=O)n(C2CCCC2)c2nc(Nc3ccc(N4CCNCC4)cn3)ncc12` [Example 391], the IC50 in experiment [1] was above 10 µM; at CDK4 it was below 1 µM; at hCDK1/B, above 10 µM.
Take `Cc1cn(C2CCCC2)c2nc(Nc3ccc(N4CCCCC4)cc3)ncc12` [Example 278]: the IC50 (in experiment [1]; at hCDK1/B) was above 10 µM throughout.
As to `CCC(CC)n1c(CNC2CCCC2)cc2cnc(Nc3ccc(N4CCN(C(C)=O)CC4)cc3)nc21` [Example 370], the IC50 (in experiment [1]; at hCDK1/B) was below 10 µM in each case.
Consider `Cc1n[nH]c(-c2c(C)c3cnc(Nc4ccc(N5CCNCC5)cn4)nc3n2C2CCCC2)n1` [Example 406], for which the IC50 is above 10 µM in experiment [1], below 1 µM on CDK4 and above 10 µM on hCDK1/B.
For the compound `CN(C)C(=O)c1cc2cnc(Nc3ccc(N4CCNCC4)cc3)nc2n1C1CCCC1` [Example 338], the IC50 in experiment [1] was below 10 µM; on CDK4 it was below 1 µM; on hCDK1/B, below 10 µM.
Consider `CCC(CC)n1c(C(=O)Nc2ccccn2)cc2cnc(Nc3ccc(N4CCNCC4)cc3)nc21` [Example 351], for which the values for the IC50 (in experiment [1]; at CDK4; at hCDK1/B) were below 10 µM, below 1 µM and below 10 µM, respectively.
Consider `CCC(CC)n1c(C(=O)Nc2ccc(CN3CCN(C)CC3)cc2)cc2cnc(Nc3ccc(N4CCNCC4)cc3)nc21` [Example 354], for which the IC50 (in experiment [1]; on hCDK1/B) was above 15 µM each time.
Turning to `CCC(CC)n1c(C(=O)Nc2ccc(C(F)(F)F)cc2)cc2cnc(Nc3ccc(N4CCNCC4)cc3)nc21` [Example 359], the IC50 was below 10 µM in experiment [1], below 1 µM on CDK4 and below 10 µM at hCDK1/B.
Regarding `Cc1cn(C2CCCC2)c2nc(Nc3nccc4ccccc34)ncc12` [Example 303], the IC50 (in experiment [1]; on CDK4; at hCDK1/B) was above 10 µM throughout.
As to `CN(C)C(=O)c1cc2cnc(NCc3ccc(N4CCN(C(=O)OC(C)(C)C)CC4)cc3)nc2n1C1CCCC1` [Example 468], the IC50 in experiment [1] was above 15 µM; on CDK4, above 10 µM; on hCDK1/B, above 15 µM.
As to `CCC(CC)n1c(C(=O)Nc2cccnc2)cc2cnc(Nc3ccc(N4CCNCC4)cc3)nc21` [Example 352], the IC50 in experiment [1] is above 10 µM; at CDK4 it was below 1 µM; on hCDK1/B, below 10 µM.
With `CCC(CC)n1c(C(=O)Nc2ccc(C(C)(C)C)cc2)cc2cnc(Nc3ccc(N4CCNCC4)cc3)nc21` [Example 349], the IC50 (in experiment [1]; at hCDK1/B) was above 15 µM each time.
With `CCC(CC)n1c(C(=O)N(C)C)cc2cnc(Nc3ccc(CN4CCN(C(=O)OC(C)(C)C)CC4)cc3)nc21` [Example 465], the IC50 in experiment [1] is below 10 µM; at CDK4, below 1 µM; at hCDK1/B, below 10 µM.
`CC(=O)c1c(C)c2cnc(Nc3ccc(N4CCNCC4)cn3)nc2n1C1CCCCCC1` [Example 389]: the IC50 is below 10 µM in experiment [1], below 1 µM on CDK4 and above 10 µM at hCDK1/B.
As for `Cc1cn(C2CCCC2)c2nc(Nc3ccc4[nH]c(=O)[nH]c4c3)ncc12` [Example 279], the IC50 was below 10 µM in experiment [1], below 1 µM on CDK4 and below 10 µM on hCDK1/B.
As for `CCC(CC)n1c(C(=O)Nc2ccncc2)cc2cnc(Nc3ccc(N4CCNCC4)cc3)nc21` [Example 353], the IC50 was above 15 µM in experiment [1], below 1 µM at CDK4 and above 15 µM on hCDK1/B.
As for `Cc1cn(-c2c[nH]cn2)c2nc(Nc3ccc(N4CCNCC4)cn3)ncc12` [Example 324], the figures for the IC50 (in experiment [1]; at CDK4; at hCDK1/B) were above 10 µM, below 1 µM and above 10 µM, respectively.
On to `CN(C)C(=O)c1cc2cnc(Nc3ccc(C4CCNCC4)cc3)nc2n1C1CCCC1` [Example 341], for which the IC50 is above 10 µM in experiment [1], below 1 µM at CDK4 and below 10 µM at hCDK1/B.
In the case of `Cc1cn(C2CCCC2)c2nc(Nc3ccc(CN4CCOCC4)cc3)ncc12` [Example 313], the IC50 in experiment [1] was below 10 µM; at CDK4, below 1 µM; on hCDK1/B it was below 10 µM.
With `CCC(CC)n1c(C(=O)Nc2cccc(C(C)(C)C)c2)cc2cnc(Nc3ccc(N4CCNCC4)cc3)nc21` [Example 358], the IC50 was above 15 µM in experiment [1], below 1 µM at CDK4 and above 15 µM at hCDK1/B.
As for `Cc1cn(C2CCCC2)c2nc(NN3CCN(C)CC3)ncc12` [Example 306], the IC50 (in experiment [1]; on CDK4; at hCDK1/B) was above 10 µM in each case.
For `Cc1cn(C2CCCC2)c2nc(Nc3ccc(N4CCOCC4)cc3)ncc12` [Example 305], the values for the IC50 (in experiment [1]; on CDK4; at hCDK1/B) were below 10 µM, above 10 µM and below 10 µM, respectively.
Regarding `CCN(CC)c1ccc(Nc2ncc3c(C)cn(C4CCCC4)c3n2)cc1` [Example 457], the IC50 (in experiment [1]; at CDK4; at hCDK1/B) was above 10 µM each time.
As for `CCC(CC)n1c(C(=O)Nc2cccc(C(F)(F)F)c2)cc2cnc(Nc3ccc(N4CCNCC4)cc3)nc21` [Example 350], the results for the IC50 (in experiment [1]; at CDK4; at hCDK1/B) were above 15 µM, below 1 µM and above 10 µM, respectively.
In the same order, the values of `CCC(C)n1c(C#N)c(C)c2cnc(Nc3ccc(N4CCC(N(C)C)CC4)cc3)nc21` (stereo not drawn) [Example 396] are below 1 µM, below 1 µM and below 1 µM.
Regarding `Cc1cn(C2CCCC2)c2nc(Nc3ccc(N4CCNCC4)cn3)ncc12` [Example 267], at hCDK1/B, the IC50 was above 10 µM.
For the compound `Cc1noc(-c2c(C)c3cnc(Nc4ccc(N5CCNCC5)cn4)nc3n2C2CCCC2)n1` [Example 407], the results for the IC50 (in experiment [1]; on CDK4; on hCDK1/B) were below 10 µM, below 1 µM and below 10 µM, respectively.
Turning to `Cc1c(C(=O)N(C)C)n(C2CCCC2)c2nc(Nc3ccc(N4CCNCC4)cn3)ncc12` [Example 392], the IC50 in experiment [1] is below 10 µM; on hCDK1/B it was above 10 µM.
On the same counts, the results for `Cc1cn(C2CCCC2)c2nc(Nc3ccc(CO)cc3)ncc12` [Example 466] are below 10 µM and below 10 µM.
In the same order, the values of `CCC(CC)n1c(CNc2cc(C)[nH]n2)cc2cnc(Nc3ccc(N4CCN(C(C)=O)CC4)cc3)nc21` [Example 372] are below 1 µM and below 10 µM.
In the same order, the values of `Cc1cn(C2CCCC2)c2nc(Nc3ccc(N(C)C)cc3)ncc12` [Example 311] are above 10 µM and above 10 µM.
Turning to `Cc1cn(C2CCCC2)c2nc(Nc3ccc(-n4ccnc4)cc3)ncc12` [Example 312], the IC50 (in experiment [1]; on hCDK1/B) was below 10 µM each time.
Regarding `Cc1cn(C2CCCC2)c2nc(Nc3ccc4[nH]ncc4c3)ncc12` [Example 281], the IC50 (in experiment [1]; at hCDK1/B) was below 10 µM each time.
Turning to `Cc1cn(C2CCCC2)c2nc(Nc3ccc(N4CCNCC4)cc3)ncc12` [Example 266], the results for the IC50 at CDK4 and on hCDK1/B were below 1 µM and below 10 µM, respectively.
For `CN(C)C(=O)c1cc2cnc(NCc3ccc(N4CCNCC4)cc3)nc2n1C1CCCC1` [Example 467], the IC50 (in experiment [1]; at hCDK1/B) was above 15 µM throughout.
For the compound `Cc1cn(C2CCCC2)c2nc(Nc3ccc(C(=O)N4CCOCC4)cc3)ncc12` [Example 292], the IC50 (in experiment [1]; at hCDK1/B) was below 10 µM each time.
As for `CCC(CC)n1c(CNc2ccon2)cc2cnc(Nc3ccc(N4CCN(C(C)=O)CC4)cc3)nc21` [Example 371], the IC50 in experiment [1] was below 10 µM; at hCDK1/B, below 1 µM.
In the same order, the values of `Cc1cn(C2CCCC2)c2nc(Nc3ccc(CN4CCN(C(=O)OC(C)(C)C)CC4)cc3)ncc12` [Example 462] are above 15 µM and above 15 µM.
As to `CCC(CC)n1c(CNc2cccnc2)cc2cnc(Nc3ccc(N4CCN(C(C)=O)CC4)cc3)nc21` [Example 369], the IC50 (in experiment [1]; at hCDK1/B) was below 10 µM each time.
Consider `Cc1cn(C2CCCC2)c2nc(Nc3ccc(N4CCOCC4)cn3)ncc12` [Example 302], for which the IC50 (in experiment [1]; on hCDK1/B) was above 10 µM throughout.
